# In US7629503B2, “Δ-4 desaturases from Euglena gracilis, expressing plants, and oils containing PUFA” (BASF Plant Science GmbH, priority 2003, dated 2009):
# System: Euglena gracilis Δ4-desaturase
# Test: Substrate specificity: feeding fatty acids to yeast expressing the Δ-4-desaturase (pYES-EGD4-2), fatty acid analysis by GC
# Format: cell-based
# Settings: transformed yeast (saccharomyces strain SC334, pYES-EGD4-2), 100 μM fatty acid substrate (67 μM for 16:1 Δ7), 2% galactose induction, 15° C. for 4 days
# Procedure: Yeasts transformed with the plasmid pYES-EGD4-2 as in Example 4 were analyzed in the following way:
# The yeast cells were grown in 1 ml of minimal medium with 0.2% raffinose for two days and then transferred into 5 ml of the same medium. This culture was grown at 30° C. for 6 h until the OD600 was 0.05. Then 100 μM of the fatty acid substrates (67 μM for 16:1 Δ7) were added, and the expression of the Δ-4-desaturase was induced by adding 2% galactose. The cells were then incubated at 15° C. for 4 days, harvested, washed with 100 mM NaHCO3 and employed for the fatty acid analysis by GC.
# The substrate specificities were found by feeding the transformed yeast strains with different fatty acids (Tab. 1). Conversion of the fed fatty acids to their Δ4-desaturated products was then determined.
row,SMILES,Conversion (in %) of the fed fatty acid to its Δ4-desaturated product
1,CCCCCCCCCCCCCCCC(=O)O [16:0],Not detectable
2,CCCCCCCCC=CCCCCCC(=O)O [16:1 Δ7],7.4 (±0.8) %
3,CCCCCC/C=C\CCCCCCCC(=O)O [16:1 Δ9],Not detectable
4,"CC/C=C\C/C=C\C/C=C\CCCCCC(=O)O [16:3 Δ7, 10, 13]",21.4 (±3.3) %
5,CCCCCCCCCCCCCCCCCC(=O)O [18:0],Not detectable
6,CCCCCCCC/C=C\CCCCCCCC(=O)O [18:1 Δ9],Not detectable
7,"CCCCC/C=C\C/C=C\CCCCCCCC(=O)O [18:2 Δ9, 12]",Not detectable
8,"CCCCC/C=C\C/C=C\C/C=C\CCCCC(=O)O [18:3 Δ6, 9, 12]",Not detectable
9,"CCCCC/C=C\C/C=C\C/C=C\CCCCCCC(=O)O [20:3 Δ8, 11, 14]",Not detectable
10,"CCCCC/C=C\C/C=C\C/C=C\C/C=C\CCCCCC(=O)O [22:4 Δ7, 10, 13, 16]",28.7 (±2.5) %
11,"CC/C=C\C/C=C\C/C=C\C/C=C\C/C=C\CCCCCC(=O)O [22:5 Δ7, 10, 13, 16, 19, docosapentaenoic acid]",29.7 (±2.8) %
